Where a name gives a salt, the structure may show the parent alone.
What was measured:
Type in all cases: cell-based
[1] = test system: collagen I and collagen III; assay: Semi-activated LX2 cells, qPCR: collagen I and collagen III at the mRNA level; conditions: 48 hours, Q-PCR, Table 2
How it was run: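 LX-2 human hepatic stellate cells, adhered 12 h, were treated with 50 µM test compound for 48 h. Total RNA was extracted, and COL1A1, COL1A2 and COL3A1 mRNA were measured by SYBR Green qPCR.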

Smad3 = assay: In vitro efficacy in semi-activated LX2 cells, qPCR: Smad3; conditions: 48 hours, Q-PCR; for inhibition at 50 µM: Homo sapiens, LX-2, 50 µM, read-out: Smad3 mRNA inhibition rate; for inhibition of the expression of Smad3 at the mRNA level: Table 2
How it was run: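 Plate LX2 cells; after 12 h adherence add compound (50 µM); harvest at 48 h; extract total RNA on ice; make cDNA; run SYBR Green Q-PCR, check amplification and melt curves, analyse by relative quantification.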

NS3TP1 = assay: Regulation of NS3TP1 in semi-activated LX2 cells, qPCR; conditions: LX-2 cells, 48 hours, Q-PCR, vs control group
Description: Test compounds were added to the LX-2 cells respectively, and total RNA in the cells was extracted 48 hours later. This experiment was performed strictly in accordance with the instructions of the Total RNA Kit. The steps were as follows (note: this experiment was performed on ice throughout the entire process, and special RNase-free tips were used throughout the entire process): • 1) The 12-well cell culture plate was taken out from the incubator, the cell culture medium was discarded, the cells were washed twice with 1 mL of 1×PBS, and a negative pressure suction device was used to fully remove PBS; • 2) 350 μL of TRK Lysis Buffer mixture/well was prepared as needed (mixture preparation method: 1 mL of TRKLysis Buffer+20 μL of β-mercaptoethanol), vortexed and mixed well. 350 μL was added to each well of the 12-well cell culture plate, and allowed to stand at room temperature for 5 minutes to fully lyse the cells; • 3) 70% ethanol/well was prepared as needed, vortexed and mixed well. 350 μL was added to each well of the 12-well cell culture plate, mixed well by shaking, and transferred to the spin column (spin column+collection tube were assembled); • 4) Centrifugation was performed at 4° C., 12000 g for 60 sec. The waste liquid was discarded after centrifugation, while the spin column was kept; • 5) 500 μL of RNA Wash Buffer I was added, centrifuged at 4° C., 12000 g for 60 sec, the waste liquid was discarded after centrifugation, and the collection column was kept; • 6) 500 μL of RNA Wash Buffer II (confirmed that ethanol had been added) was added, centrifuged at 4° C., 12000 g for 60 sec, the waste liquid was discarded after centrifugation, and the collection column was kept; • 7) step 6) was repeated once again, centrifugation was performed at 4° C., 12000 g for 90 sec, the waste liquid was discarded after centrifugation, and the collection column was kept; • 8) Centrifugation was performed at 4° C., 12000 g for 120 sec to ensure that the spin column was fully dried; • 9) The dried spin column was inserted into a new 1.5 mL EP tube, and 30 μL of DEPC water was added to the membrane in the center of the spin column. It should be careful not to touch the EP tube cover in this step. It was allowed to stand at room temperature for 5 minutes to ensure that the RNA was fully dissolved in DEPC water. Centrifugation was performed at 4° C., 12000 g for 60 sec, and the EP tube was kept; • 10) NanoDrop ultra-micro-volume spectrophotometer was used to detect RNA concentration;
5.2 Reverse transcription of RNA into cDNA: According to the instructions of PrimeScript™ RT reagent Kit (Perfect Real Time), the specific experimental steps were as follows:
5.3 Q-PCR detection of target gene expression: According to the instructions of Power SYBR® Green PCR Master Mix, the specific operations were as follows:
After the reaction was completed, the amplification curve and dissolution curve of Q-PCR were confirmed, and the relative quantification method ([…]) was used to perform data analysis on the experimental results.
LX2 cells were passaged and plated normally. […] After 48 hours, the cells were collected, total RNA was extracted, and the expression of NS3TP1 gene was detected using Q-PCR method.

SMILES | inhibition of the expression of collagen I and collagen III at the mRNA level [1] | inhibition at 50 µM (Smad3) [%] | Up-regulation of NS3TP1 (NS3TP1; test concentration 10 mM) | inhibition of the expression of Smad3 at the mRNA level (Smad3) | Up-regulation of NS3TP1 (NS3TP1; 200 µM compound)
N[C@@H](CCC(=O)O)C(=O)O [Compound 47] | could inhibit | 1 to 10 |  |  | 
COC(=O)[C@@H](N)CC(=O)O [Compound 4] | could inhibit | 25 to 50 | B (B represented that the up-regulation was 20~40%) | could inhibit | 
COC(=O)C[C@H](N)C(=O)O [Compound 6] | could inhibit | 25 to 50 |  | could inhibit | A (A represented that the up-regulation was 40% or above)
COC(=O)C[C@H](N)C(=O)OCOC(=O)[C@@H](N)CC(=O)OC [Compound 54, 4-dimethyl O′1,01-methylene (2S,2'S)-bis (2-aminosuccinate) hydrochloride] | could inhibit |  |  |  | A (A represented that the up-regulation was 40% or above)
